These results are taken from ChEMBL document CHEMBL3603813, “Quinoline-based antimalarial hybrid compounds” (Bioorg Med Chem, 2015).

Some results are limits rather than exact numbers.

In data set [1] the test system is Plasmodium berghei. Description: Antimalarial activity against Plasmodium berghei infected in mouse assessed as reduction in parasitemia at 44 to 46 mg/kg, po. It counts as functional.
The test system of data set [2] is Plasmodium falciparum. Description: Antiplasmodial activity against CQ-resistant Plasmodium falciparum FCR3. The class given is functional, organism-based.
The subject of data set [3] is Plasmodium falciparum. Description: Antiplasmodial activity against CQ-resistant Plasmodium falciparum W2 assessed as inhibition of parasite growth. The class given is functional, organism-based.
The test system of data set [4] is Plasmodium berghei. Description: Antimalarial activity against Plasmodium berghei infected in human HuH7 cells assessed as inhibition of liver cell infection. It counts as functional, organism-based. As to conditions: Huh-7, Liver.
Data set [5] concerns Plasmodium berghei. Description: Antimalarial activity against Plasmodium berghei infected in mouse assessed as inhibition of parasite multiplication at 5 mg/kg/day administered for 4 days measured after 7 days. It counts as functional.
The subject of data set [6] is Plasmodium falciparum. Description: Antiplasmodial activity against CQ-sensitive Plasmodium falciparum D10. The class given is functional, organism-based.
For data set [7], the system named is Plasmodium falciparum. Description: Antiplasmodial activity against CQ-resistant Plasmodium falciparum K1. It counts as functional, organism-based.
In data set [8] the test system is Plasmodium falciparum. Description: Antiplasmodial activity against CQ-resistant Plasmodium falciparum FcB1. It counts as functional.
Data set [9] deals with Plasmodium falciparum. Description: Antiplasmodial activity against CQ-resistant Plasmodium falciparum FcM29. The class given is functional.
Data set [10] deals with Plasmodium falciparum. Description: Antiplasmodial activity against CQ-sensitive Plasmodium falciparum D6. It counts as functional.
The subject of data set [11] is Plasmodium falciparum. Description: Antiplasmodial activity against CQ-resistant Plasmodium falciparum Dd2. The class given is functional, organism-based.
Data set [12] in a line: Inhibition of beta-hematin formation. It counts as physicochemical.

Consider `Clc1ccc2c(NCCN3CCC(NC(c4ccccn4)c4ccccn4)CC3)ccnc2c1`, for which the “inhibition (INH)” value in the data set on Plasmodium berghei [1] is recorded as above 99.9%.
In general, IC50 refers to the concentration needed to halve the response being measured. The compound `O=[N+]([O-])c1ccccc1S(=O)(=O)N1CCN(c2ccnc3cc(Cl)ccc23)CC1` displayed an IC50 in the data set on Plasmodium falciparum [2] of 1200 nM.
In the case of `CCCS(=O)(=O)N1CCN(c2ccnc3cc(Cl)ccc23)CC1`, in the data set on Plasmodium falciparum [2], the IC50 came to 1200 nM.
Take `COc1cc(NC(C)CCCNC(=O)CC2CCC3(CC2)OOC2(OO3)C3CC4CC(C3)CC2C4)c2ncccc2c1` (stereo unspecified): the IC50 in the data set on Plasmodium falciparum [3] amounted to 21 nM; in the data set with Plasmodium berghei [4], 330 nM.
On to `O=C(CS(=O)(=O)N1CCN(c2ccnc3cc(Cl)ccc23)CC1)Nc1ccccc1`, for which, in the data set with Plasmodium falciparum [2], the IC50 turned out to be 1200 nM.
What is called inhibition in vivo is the drop in the measured response relative to a control, in per cent. On to `Clc1ccc2c(Sc3ncnc4[nH]cnc34)ccnc2c1`, for which the inhibition in vivo at 5 mg/kg/day in the data set on Plasmodium berghei [5] turned out to be 70%.
On to `C[C@H]1[C@@H](OCc2ccc(C(=O)N(CCNc3ccnc4cc(Cl)ccc34)CC(=O)NC(C)(C)C)cc2)O[C@@H]2O[C@@]3(C)CC[C@H]4[C@H](C)CC[C@@H]1[C@@]24OO3`, for which the IC50 with Plasmodium falciparum [6] is 26 nM; with Plasmodium falciparum [7], 19 nM.
The corresponding values for `C[C@H]1[C@@H](OCc2ccc(C(=O)N(CCNc3ccnc4cc(Cl)ccc34)CC(=O)NC3CCCCC3)cc2)O[C@@H]2O[C@@]3(C)CC[C@H]4[C@H](C)CC[C@@H]1[C@@]24OO3` are 26 nM and 19 nM.
The corresponding values for `C[C@H]1[C@@H](OCc2cccc(C(=O)N(CCCCNc3ccnc4cc(Cl)ccc34)CC(=O)NC3CCCCC3)c2)O[C@@H]2O[C@@]3(C)CC[C@H]4[C@H](C)CC[C@@H]1[C@@]24OO3` are 26 nM and 19 nM.
As to `C[C@@H]1CC[C@H]2[C@@H](C)C(=O)O[C@@H]3O[C@@]4(C)CC[C@@H]1[C@]32OO4` [ARTEMISININ], the Activity with Plasmodium falciparum [8] was 10 nM; with Plasmodium falciparum [9], 18 nM.
`CCN(CC)CCCC(C)Nc1ccnc2cc(Cl)ccc12` (stereo unspecified) [CHLOROQUINE]: the Activity is reported as 145 nM in the data set with Plasmodium falciparum [8], 735 nM in the data set with Plasmodium falciparum [9], 7 nM in the data set with Plasmodium falciparum [10] and 102 nM in the data set with Plasmodium falciparum [11]. The “inhibition (INH)” value in data set [12] is 94%.
With `Clc1ccc2c(NCCCN3CCC(NC(c4ccccn4)c4ccccn4)CC3)ccnc2c1` [DM-1157], the “inhibition (INH)” value in the data set with Plasmodium berghei [1] is above 99.9%.
